Among the data in patent US7217730B2, “Method for the use of pyranoindole derivatives to treat infection with Hepatitis C virus” (Wyeth, priority 2002, dated 2007) are inhibition and IC50 values, retold here.

In the test the target is T1, NS5B from the BK strain (genotype 1b) (Hepatitis C virus genotype 1b, UniProt P26663).
T1 construct: NS5B from the BK strain (genotype 1b) is expressed in E. coli as a protein in which the 21 C-terminal amino acids are replaced; made in house; host or cells: E. coli
T1 sequence (P26663 2420-2989): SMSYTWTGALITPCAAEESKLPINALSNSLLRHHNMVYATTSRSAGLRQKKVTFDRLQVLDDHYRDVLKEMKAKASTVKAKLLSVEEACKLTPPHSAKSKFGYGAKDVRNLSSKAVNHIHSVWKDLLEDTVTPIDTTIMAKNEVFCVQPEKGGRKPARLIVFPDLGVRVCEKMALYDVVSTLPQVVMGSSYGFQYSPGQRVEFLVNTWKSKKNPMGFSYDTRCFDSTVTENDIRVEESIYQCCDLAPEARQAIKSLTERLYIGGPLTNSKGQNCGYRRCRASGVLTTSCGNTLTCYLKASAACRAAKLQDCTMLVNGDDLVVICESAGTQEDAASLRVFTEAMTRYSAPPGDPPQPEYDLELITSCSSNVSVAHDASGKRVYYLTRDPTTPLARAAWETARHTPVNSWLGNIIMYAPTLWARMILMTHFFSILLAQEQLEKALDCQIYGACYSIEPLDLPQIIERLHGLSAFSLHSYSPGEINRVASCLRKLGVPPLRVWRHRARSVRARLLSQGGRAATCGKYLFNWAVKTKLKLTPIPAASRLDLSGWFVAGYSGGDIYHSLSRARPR
Description: Hepatitis C polymerase inhibition, NS5B BK strain, 33P-GTP filter assay. The settings on record: for inhibition at 20 µM: 20 μM compound, read-out: HCV pol % inh at 20 μM; for IC50: NS5B BK strain. The format is biochemical. A digest of the protocol:
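E. coli-expressed NS5B (BK, genotype 1b) with the 21 C-terminal residues replaced by a linker-His6 tag was preincubated with compound for 15 min at room temperature. It then extended a hairpin-primed heteropolymeric RNA (~3 nM, ~760 nt product) with α-[33P]-GTP for 2 h at 22–25° C. The reaction was stopped with EDTA, and incorporated label was counted on filters.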

Setting [1] is: Table 1A, read-out: HCV pol BK IC50.

Like-named read-outs stand apart in the source and are kept apart here.

In the case of `CCCC1(CC(=O)O)OCCc2c1[nH]c1c(-c3ccc(C(F)(F)F)cc3)cccc21` (centres unmarked) [Example 94, {1-propyl-8-[4-(trifluoromethyl)phenyl]-1,3,4,9-tetrahydropyrano[3,4-b]indol-1-yl}acetic acid], the inhibition at 20 µM (Table 1A) amounted to 33%. Further, the IC50 under setting [1] was more than 20 µM.

Regarding `CC(C)C1(CC(=O)O)OCCc2c1[nH]c1c(Cl)ccc(Cl)c21` (centres unmarked) [Example 51, (5,8-dichloro-1-isopropyl-1,3,4,9-tetrahydropyrano[3,4-b]indol-1-yl)acetic acid], the inhibition at 20 µM (Table 1A) turned out to be 84%. Under setting [1], the IC50 was 7 µM.

Regarding `CCCCC1(CC(=O)O)OCCc2c1[nH]c1c(C)cc(F)c(Br)c21` (centres unmarked) [Example 203, (5-bromo-1-butyl-6-fluoro-8-methyl-1,3,4,9-tetrahydropyrano[3,4-b]indol-1-yl)acetic acid], the inhibition at 20 µM (Table 1A) turned out to be 94%. Moreover, under setting [1], the half-inhibitory concentration (IC50) came out at 0.19 µM.

In the case of `CCCC1(CC(=O)O)OCCc2c1[nH]c1c(C)ccc(F)c21` (centres unmarked) [Example 141, (5-fluoro-8-methyl-1-propyl-1,3,4,9-tetrahydropyrano[3,4-b]indol-1-yl)acetic acid], the inhibition at 20 µM (Table 1A) came out at 79%. Further, the IC50 under setting [1] was found to be 1.4 µM.

For the compound `O=C(O)CC1(c2ccccc2)OCCc2c1[nH]c1c(Cl)ccc(C(F)(F)F)c21` (centres unmarked) [Example 135, [8-chloro-1-phenyl-5-(trifluoromethyl)-1,3,4,9-tetrahydropyrano[3,4-b]indol-1-yl]acetic acid], for the setting “Table 1A”, the inhibition at 20 µM was 55%. Moreover, the IC50 under setting [1] was more than 20 µM.

Take `CC(C)C1(CC(=O)O)OCCc2c1[nH]c1c(F)cc(F)c(C#N)c21` (centres unmarked) [Example 198, (5-cyano-6,8-difluoro-1-isopropyl-1,3,4,9-tetrahydropyrano[3,4-b]indol-1-yl)acetic acid]: the inhibition at 20 µM (Table 1A) came to 82%. Further, the IC50 under setting [1] is more than 5 µM.

Consider `Cc1cc(Cl)c2[nH]c3c(c2c1C#N)CCOC3(CC(=O)O)c1ccccc1` (centres unmarked) [Example 187, (8-chloro-5-cyano-6-methyl-1-phenyl-1,3,4,9-tetrahydropyrano[3,4-b]indol-1-yl)acetic acid], for which the inhibition at 20 µM (Table 1A) was determined as 61%. In addition, under setting [1], the IC50 is more than 5 µM.

Turning to `CCCC1(CC(=O)O)OCCc2c1[nH]c1c(F)ccc(Cl)c21` (centres unmarked) [Example 214, (5-chloro-8-fluoro-1-propyl-1,3,4,9-tetrahydropyrano[3,4-b]indol-1-yl)acetic acid], the inhibition at 20 µM (Table 1A) is 82%. Besides, the IC50 under setting [1] was found to be 0.74 µM.

Regarding `CC(C)C1(CC(=O)O)OCCc2c1[nH]c1c(C(F)(F)F)cccc21` (centres unmarked) [Example 118, [1-isopropyl-8-(trifluoromethyl)-1,3,4,9-tetrahydropyrano[3,4-b]indol-1-yl]acetic acid], the inhibition at 20 µM (Table 1A) was 10%. The IC50 under setting [1] is more than 20 µM.

For the compound `CCCC1(CC(=O)O)OCCc2c1[nH]c1cccc(-c3ccc(Cl)cc3)c21` (centres unmarked) [Example 34, (5-(4-chlorophenyl)-1-propyl-1,3,4,9-tetrahydropyrano[3,4-b]indol-1-yl]acetic acid], the inhibition at 20 µM (Table 1A) stood at 5%. Also, under setting [1], the half-inhibitory concentration (IC50) is more than 20 µM.

With `CC(C)C1(CC(=O)O)OCCc2c1[nH]c1c(Br)ccc(Br)c21` (centres unmarked) [Example 212, (5,8-dibromo-1-isopropyl-1,3,4,9-tetrahydropyrano[3,4-b]indol-1-yl)acetic acid], for the setting “Table 1A”, the inhibition at 20 µM was determined as 81%. Also, the IC50 under setting [1] was found to be 0.4 µM.

Regarding `CCCC1(CC(=O)O)OCCc2c1[nH]c1c(-c3ccc(C)cc3)cccc21` (centres unmarked) [Example 90, [8-(4-methylphenyl)-1-propyl-1,3,4,9-tetrahydropyrano[3,4-b]indol-1-yl]acetic acid], for the setting “Table 1A”, the inhibition at 20 µM stood at 2%. The IC50 under setting [1] was more than 20 µM.

Regarding `Cc1cc(F)c2[nH]c3c(c2c1Br)CCOC3(CC(=O)O)c1ccc(C(=O)O)cc1` (centres unmarked) [Example 169, 4-[5-bromo-1-(carboxymethyl)-8-fluoro-6-methyl-1,3,4,9-tetrahydropyrano[3,4-b]indol-1-yl]benzoic acid], the inhibition at 20 µM (Table 1A) is 82%. Besides, under setting [1], the IC50 worked out at 0.22 µM.

In the case of `N#Cc1ccc(F)c2[nH]c3c(c12)CCOC3(CC(=O)O)C1CCCCC1` (centres unmarked) [Example 309, (5-cyano-1-cyclohexyl-8-fluoro-1,3,4,9-tetrahydropyrano[3,4-b]indol-1-yl)acetic acid], the IC50 (Table 1B, read-out: BK IC50) is 26 µM.

Take `Cc1cc(F)c(C#N)c2c3c([nH]c12)C(CC(=O)O)(C(C)C)OCC3` (centres unmarked) [Example 207, (5-cyano-6-fluoro-1-isopropyl-8-methyl-1,3,4,9-tetrahydropyrano[3,4-b]indol-1-yl)acetic acid]: where the note is “Table 1A”, the inhibition at 20 µM is 76%. For the same compound, the IC50 under setting [1] turned out to be 0.58 µM.

`CC1(CC(=O)O)OCCc2c1[nH]c1c(Cl)ccc(C(F)(F)F)c21` (centres unmarked) [Example 129, [8-chloro-1-methyl-5-(trifluoromethyl)-1,3,4,9-tetrahydropyrano[3,4-b]indol-1-yl]acetic acid]: the inhibition at 20 µM (Table 1A) is 45%. The IC50 under setting [1] was more than 20 µM.

For `CC(C)C1(CC(=O)O)OCCc2c1[nH]c1cccc(Cl)c21` (centres unmarked) [Example 15, (5-chloro-1-isopropyl-1,3,4,9-tetrahydropyrano[3,4-b]indol-1-yl)acetic acid], the inhibition at 20 µM (Table 1A) was determined as 7%. For the same compound, the IC50 under setting [1] is more than 20 µM.

Consider `CCCC1(CC(=O)O)OCCc2c1[nH]c1c(F)ccc(-c3ccc(OC)cc3)c21` (centres unmarked) [Example 149, [8-fluoro-5-(4-methoxyphenyl)-1-propyl-1,3,4,9-tetrahydropyrano[3,4-b]indol-1-yl]acetic acid], for which the inhibition at 20 µM (Table 1A) was less than 11%. Further, the IC50 under setting [1] came out at 16 µM.

Consider `CCCC1(CC(=O)O)OCCc2c1[nH]c1cccc(-c3ccco3)c21` (centres unmarked) [Example 40, [5-(2-furyl)-1-propyl-1,3,4,9-tetrahydropyrano[3,4-b]indol-1-yl]acetic acid], for which the inhibition at 20 µM (Table 1A) was 27%. For the same compound, under setting [1], the IC50 was more than 20 µM.

For the compound `CCC1(CC(=O)O)OCCc2c1[nH]c1cccc(Cl)c21` (centres unmarked) [Example 13, (5-Chloro-1-ethyl-1,3,4,9-tetrahydropyrano[3,4-b]indol-1-yl)acetic acid], under “Table 1A”, the inhibition at 20 µM stood at 23%. In addition, the IC50 under setting [1] is more than 20 µM.

As to `C/C=C/CCC1(CC(=O)O)OCCc2c1[nH]c1c(F)ccc(F)c21` (centres unmarked) [Example 127, {5,8-difluoro-1-[(3E)-pent-3-enyl]-1,3,4,9-tetrahydropyrano[3,4-b]indol-1-yl}acetic acid], for the setting “Table 1A”, the inhibition at 20 µM was found to be 24%. The IC50 under setting [1] is more than 20 µM.

Turning to `CCCC1(CC(=O)O)OCCc2c1[nH]c1c(C)ccc(C)c21` (centres unmarked) [Example 139, (5,8-dimethyl-1-propyl-1,3,4,9-tetrahydropyrano[3,4-b]indol-1-yl)acetic acid], the inhibition at 20 µM (Table 1A) amounted to 40%. Further, the IC50 under setting [1] came to 8.3 µM.

As to `CCC1(CC(=O)O)OCCc2c1[nH]c1c(Cl)ccc(C(F)(F)F)c21` (centres unmarked) [Example 130, [8-chloro-1-ethyl-5-(trifluoromethyl)-1,3,4,9-tetrahydropyrano[3,4-b]indol-1-yl]acetic acid], where the note is “Table 1A”, the inhibition at 20 µM came out at 77%. Besides, the IC50 under setting [1] came to 5.5 µM.

Consider `CCCCC1(CC(=O)O)OCCc2c1[nH]c1c(F)cc(F)c(Br)c21` (centres unmarked) [Example 191, (5-bromo-1-butyl-6,8-difluoro-1,3,4,9-tetrahydropyrano[3,4-b]indol-1-yl)acetic acid], for which the inhibition at 20 µM (Table 1A) came out at 93%. Also, the IC50 under setting [1] was 0.4 µM.

Consider `CC1(CC(=O)O)OCCc2c1[nH]c1c(Cl)cc(Cl)cc21` (centres unmarked) [Example 99, (6,8-dichloro-1-methyl-1,3,4,9-tetrahydropyrano[3,4-b]indol-1-yl)acetic acid], for which the inhibition at 20 µM (Table 1A) came to 32%. For the same compound, the IC50 under setting [1] was more than 20 µM.

Regarding `Cc1cc(F)c(C#N)c2c3c([nH]c12)C(CC(=O)O)(c1ccc(C(=O)O)cc1)OCC3` (centres unmarked) [Example 209, 4-[1-(carboxymethyl)-5-cyano-6-fluoro-8-methyl-1,3,4,9-tetrahydropyrano[3,4-b]indol-1-yl]benzoic acid], the inhibition at 20 µM (Table 1A) is 63%. The IC50 under setting [1] is 17.9 µM.

For `CCC[C@@]1(CC(=O)O)OCCc2c1[nH]c1c(F)ccc(C#N)c21` [Example 6, [(S)-5-cyano-8-fluoro-1-propyl-1,3,4,9-tetrahydropyrano[3,4-b]indol-1-yl]acetic acid], under setting [1], the IC50 was 5.7 µM.

On to `CCCCC1(CC(=O)O)OCCc2c1[nH]c1c(Br)ccc(Br)c21` (centres unmarked) [Example 213, (5,8-dibromo-1-butyl-1,3,4,9-tetrahydropyrano[3,4-b]indol-1-yl)acetic acid], for which the inhibition at 20 µM (Table 1A) was determined as 87%. Also, the half-maximal inhibitory concentration (IC50) under setting [1] is 0.28 µM.

With `C/C=C/CCC1(CC(=O)O)OCCc2c1[nH]c1c(Cl)ccc(C(F)(F)F)c21` (centres unmarked) [Example 134, [8-chloro-1-[(3E)-pent-3-enyl]-5-(trifluoromethyl)-1,3,4,9-tetrahydropyrano[3,4-b]indol-1-yl]acetic acid], the inhibition at 20 µM (Table 1A) turned out to be 28%. In addition, the IC50 under setting [1] was more than 20 µM.

For `O=C(O)CC1(c2ccoc2)OCCc2c1[nH]c1c(Br)cccc21` (centres unmarked) [Example 88, [8-bromo-1-(3-furyl)-1,3,4,9-tetrahydropyrano[3,4-b]indol-1-yl]acetic acid], the inhibition at 20 µM (Table 1A) worked out at 30%. The IC50 under setting [1] is more than 20 µM.

With `Cc1cc(F)c2[nH]c3c(c2c1Br)CCOC3(CC(=O)O)C(C)C` (centres unmarked) [Example 166, (5-bromo-8-fluoro-1-isopropyl-6-methyl-1,3,4,9-tetrahydropyrano[3,4-b]indol-1-yl)acetic acid], the inhibition at 20 µM (Table 1A) is 55%. Further, the IC50 under setting [1] worked out at 3.7 µM.

`O=C(O)CC1(c2ccccc2)OCCc2c1[nH]c1c(Cl)ccc(Cl)c21` (centres unmarked) [Example 52, (5,8-dichloro-1-phenyl-1,3,4,9-tetrahydropyrano[3,4-b]indol-1-yl)acetic acid]: the inhibition at 20 µM (Table 1A) was 11%. In addition, the half-maximal inhibitory concentration (IC50) under setting [1] is more than 20 µM.
